One assay relates to N. gonorrhoeae WHO Q. As to the kind of experiment: Liquid broth MIC in Fastidious broth. Format: cell-based. To be noted: Neisseria gonorrhoeae, read-out: Minimum Inhibitory Concentration, N. gonorrhoeae WHO Q. An outline of the steps:
(§1)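 MIC = lowest concentration giving <10% growth relative to untreated wells, scored by eye after ~24 h at 36 °C, 5% CO2. Strains carry mosaic PBP2; inoculum 5×10^5 CFU/mL in Fastidious broth with 2-fold serial compound dilutions.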

The next assay deals with N. gonorrhoeae WHO Z. The assay can be described thus: Liquid broth MIC in Fastidious broth. It counts as cell-based. To be noted: Neisseria gonorrhoeae, read-out: Minimum Inhibitory Concentration, N. gonorrhoeae WHO Z. Put shortly: as §1
A further assay concerns the target T1, P. aeruginosa PBP3 (Pseudomonas aeruginosa, UniProt G3XD46).
T1 construct: made in house
As to the kind of experiment: Bocillin-FL fluorescence polarization competition binding assay, P. aeruginosa PBP3. To be noted: fluorescence polarization competition binding assay using Bocillin-FL. Put shortly:
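Inhibitor competition with Bocillin-FL for P. aeruginosa PBP3 was followed by fluorescence polarization on a Cytation3 (BioTek) reader, using g-factor 0.96, 490 nm excitation and 520 nm emission. The enzyme was at 0.75 μM and the probe at 0.1 μM in Hepes/NaCl/glycerol buffer, 80 μl per well. FP was recorded immediately after probe addition for up to 60 minutes. Potency was expressed as EC50, the concentration that reduces bound probe by 50%.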
A general note: Fluorescence polarisation rises when a labelled molecule tumbles more slowly, as on binding a larger partner.

The values that follow come from US20230114728A1 (Venatorx Pharmaceuticals, Inc., priority 2019, published 2023).

Values after ≈ are worked out from the molar mass of the structure shown. Bounds are passed on as bounds.

T1 sequence (G3XD46 whole entry): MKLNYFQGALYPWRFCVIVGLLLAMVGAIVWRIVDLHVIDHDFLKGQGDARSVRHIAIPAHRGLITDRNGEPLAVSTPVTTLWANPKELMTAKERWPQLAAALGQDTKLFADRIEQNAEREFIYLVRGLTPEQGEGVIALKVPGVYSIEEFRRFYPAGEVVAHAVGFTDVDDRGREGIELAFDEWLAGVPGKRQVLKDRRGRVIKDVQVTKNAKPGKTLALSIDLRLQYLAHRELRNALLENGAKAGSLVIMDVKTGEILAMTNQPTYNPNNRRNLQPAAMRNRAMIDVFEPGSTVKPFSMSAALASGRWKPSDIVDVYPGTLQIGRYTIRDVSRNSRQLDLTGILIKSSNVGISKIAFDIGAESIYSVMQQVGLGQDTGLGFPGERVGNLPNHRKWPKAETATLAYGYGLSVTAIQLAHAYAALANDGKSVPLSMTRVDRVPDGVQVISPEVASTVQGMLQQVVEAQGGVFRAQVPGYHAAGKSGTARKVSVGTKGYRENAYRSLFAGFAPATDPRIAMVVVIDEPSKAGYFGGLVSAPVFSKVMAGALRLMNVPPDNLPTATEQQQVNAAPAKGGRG

`CCN1CCN(C(=O)NC(C(=O)N[C@H]2Cc3ccc(CO)c(C(=O)O)c3OB2O)c2csc(N)n2)C(O)C1=O` (stereo partly drawn) [Example 58, (3R)-3-(2-(2-aminothiazol-4-yl)-2-(4-ethyl-2-hydroxy-3-oxopiperazine-1-carboxamido)acetamido)-2-hydroxy-7-(hydroxymethyl)-3,4-dihydro-2H-benzo[el][1,2]oxaborinine-8-carboxylic acid]: the MIC in the assay with N. gonorrhoeae WHO Q and in the assay on N. gonorrhoeae WHO Z was over 64 µg/mL in each case. For the same compound, the “P. aeruginosa PBP3 Potency” value at P. aeruginosa PBP3 was “B (B represents a potency between 30 μM and 500 μM inclusive)”.

Consider `CCN1CCN(C(=O)NC(C(=O)N[C@H]2Cc3ccc(OCCN)c(C(=O)O)c3OB2O)c2ccccc2)C(=O)C1=O` (stereo partly drawn) [Example 60, (3R)-7-(2-aminoethoxy)-3-(2-(4-ethyl-2,3-dioxopiperazine-1-carboxamido)-2-phenylacetamido)-2-hydroxy-3,4-dihydro-2H-benzo[e][1,2]oxaborinine-8-carboxylic acid], for which the MIC in the assay on N. gonorrhoeae WHO Q and in the assay with N. gonorrhoeae WHO Z was over 64 µg/mL each time. Besides, at P. aeruginosa PBP3, the “P. aeruginosa PBP3 Potency” value was “C (C represents a potency between 10 and 30 μM)”.

Take `CCN1CCN(C(=O)NC(C(=O)N[C@H]2Cc3cccc(C(=O)O)c3OB2O)c2ccc(O)cc2O)C(=O)C1=O` (stereo partly drawn) [Example 69, (3R)-3-(2-(2,4-dihydroxyphenyl)-2-(4-ethyl-2,3-dioxopiperazine-1-carboxamido)acetamido)-2-hydroxy-3,4-dihydro-2H-benzo[e][1,2]oxaborinine-8-carboxylic acid]: the MIC is over 64 µg/mL in the assay with N. gonorrhoeae WHO Q and 16 to 32 µg/mL (≈ 29.6 to 59.2 µM) with N. gonorrhoeae WHO Z. Further, on P. aeruginosa PBP3, the “P. aeruginosa PBP3 Potency” value was “C (C represents a potency between 10 and 30 μM)”.

Regarding `CCN1CCN(C(=O)NC(C(=O)N[C@H]2Cc3cccc(C(=O)O)c3OB2O)c2ccc(O)cc2OC)C(=O)C1=O` (stereo partly drawn) [Example 70, (3R)-3-(2-(4-ethyl-2,3-dioxopiperazine-1-carboxamido)-2-(4-hydroxy-2-methoxyphenyl)acetamido)-2-hydroxy-3,4-dihydro-2H-benzo[e][1,2]oxaborinine-8-carboxylic acid], the MIC with N. gonorrhoeae WHO Q and with N. gonorrhoeae WHO Z was over 64 µg/mL throughout. For the same compound, the “P. aeruginosa PBP3 Potency” value on P. aeruginosa PBP3 is given as “D (D represents a potency <10 μM)”.

With `CCN1CCN(C(=O)NC(C(=O)N[C@H]2Cc3cccc(C(=O)O)c3OB2O)c2cccc([N+](=O)[O-])c2)C(=O)C1=O` (stereo partly drawn) [Example 75, (3R)-3-(2-(4-ethyl-2,3-dioxopiperazine-1-carboxamido)-2-(3-nitrophenyl)acetamido)-2-hydroxy-3,4-dihydro-2H-benzo[e][1,2]oxaborinine-8-carboxylic acid], the MIC in the assay on N. gonorrhoeae WHO Q and in the assay with N. gonorrhoeae WHO Z was 16 to 32 µg/mL (≈ 28.9 to 57.8 µM) throughout. On P. aeruginosa PBP3, the “P. aeruginosa PBP3 Potency” value is “D (D represents a potency <10 μM)”.

For `CCN1CCN(C(=O)NC(C(=O)N[C@H]2Cc3cccc(C(=O)O)c3OB2O)c2cccc(NS(C)(=O)=O)c2)C(=O)C1=O` (stereo partly drawn) [Example 76, (3R)-3-(2-(4-ethyl-2,3-dioxopiperazine-1-carboxamido)-2-(3-(methylsulfonamido)phenyl)acetamido)-2-hydroxy-3,4-dihydro-2H-benzo[e][1,2]oxaborinine-8-carboxylic acid], the MIC in the assay on N. gonorrhoeae WHO Q and in the assay on N. gonorrhoeae WHO Z was over 64 µg/mL in each case. In addition, the “P. aeruginosa PBP3 Potency” value on P. aeruginosa PBP3 is “D (D represents a potency <10 μM)”.

Take `CCN1CCN(C(=O)NC(C(=O)N[C@H]2Cc3cccc(C(=O)O)c3OB2O)c2cc(O)ccc2O)C(=O)C1=O` (stereo partly drawn) [Example 77, (3R)-3-(2-(2,5-dihydroxyphenyl)-2-(4-ethyl-2,3-dioxopiperazine-1-carboxamido)acetamido)-2-hydroxy-3,4-dihydro-2H-benzo[e][1,2]oxaborinine-8-carboxylic acid]: the MIC in the assay with N. gonorrhoeae WHO Q and with N. gonorrhoeae WHO Z was over 64 µg/mL in each case. Moreover, the “P. aeruginosa PBP3 Potency” value at P. aeruginosa PBP3 is “B (B represents a potency between 30 μM and 500 μM inclusive)”.

Consider `N=C(N)NCCN1CCN(C(=O)NC(C(=O)N[C@H]2Cc3ccc(F)c(C(=O)O)c3OB2O)c2ccc(C(=O)O)c(F)c2)C(=O)C1=O` (stereo partly drawn) [Example 78, (3R)-3-(2-(4-carboxy-3-fluorophenyl)-2-(4-(2-guanidinoethyl)-2,3-dioxopiperazine-1-carboxamido)acetamido)-7-fluoro-2-hydroxy-3,4-dihydro-2H-benzo[e][1,2]oxaborinine-8-carboxylic acid], for which the MIC is over 64 µg/mL in the assay with N. gonorrhoeae WHO Q and 16 to 32 µg/mL (≈ 24.8 to 49.6 µM) in the assay with N. gonorrhoeae WHO Z. Further, the “P. aeruginosa PBP3 Potency” value at P. aeruginosa PBP3 is reported as “D (D represents a potency <10 μM)”.

For the compound `NCCN1CCN(C(=O)NC(C(=O)N[C@H]2Cc3cccc(C(=O)O)c3OB2O)c2cc(Cl)c(O)cc2F)C(=O)C1=O` (stereo partly drawn) [Example 87, (3R)-3-(2-(4-(2-aminoethyl)-2,3-dioxopiperazine-1-carboxamido)-2-(5-chloro-2-fluoro-4-hydroxyphenyl)acetamido)-2-hydroxy-3,4-dihydro-2H-benzo[e][1,2]oxaborinine-8-carboxylic acid], the MIC with N. gonorrhoeae WHO Q and with N. gonorrhoeae WHO Z was over 64 µg/mL throughout. Further, the “P. aeruginosa PBP3 Potency” value at P. aeruginosa PBP3 is recorded as “D (D represents a potency <10 μM)”.

For `NCCN1CCN(C(=O)N[C@@H](C(=O)N[C@H]2Cc3cccc(C(=O)O)c3OB2O)c2cc(Cl)c(O)cc2Cl)C(=O)C1=O` [Example 90, (R)-3-((R)-2-(4-(2-aminoethyl)-2,3-dioxopiperazine-1-carboxamido)-2-(2,5-dichloro-4-hydroxyphenyl)acetamido)-2-hydroxy-3,4-dihydro-2H-benzo[e][1,2]oxaborinine-8-carboxylic acid], the MIC in the assay with N. gonorrhoeae WHO Q and in the assay with N. gonorrhoeae WHO Z was over 64 µg/mL throughout. Besides, the “P. aeruginosa PBP3 Potency” value on P. aeruginosa PBP3 is recorded as “D (D represents a potency <10 μM)”.

Turning to `NCCN1CCN(C(=O)NC(C(=O)N[C@H]2Cc3cccc(C(=O)O)c3OB2O)c2cc(F)c(O)cc2F)C(=O)C1=O` (stereo partly drawn) [Example 93, (3R)-3-(2-(4-(2-aminoethyl)-2,3-dioxopiperazine-1-carboxamido)-2-(2,5-difluoro-4-hydroxyphenyl)acetamido)-2-hydroxy-3,4-dihydro-2H-benzo[e][1,2]oxaborinine-8-carboxylic acid], the MIC with N. gonorrhoeae WHO Q and in the assay on N. gonorrhoeae WHO Z was over 64 µg/mL in each case. Further, on P. aeruginosa PBP3, the “P. aeruginosa PBP3 Potency” value is recorded as “D (D represents a potency <10 μM)”.

As to `CCN1CCN(C(=O)NC(C(=O)N[C@H]2Cc3cccc(C(=O)O)c3OB2O)c2cccc(NC(=O)c3cncnc3)c2)C(=O)C1=O` (stereo partly drawn) [Example 96, (3R)-3-(2-(4-ethyl-2,3-dioxopiperazine-1-carboxamido)-2-(3-(pyrimidine-5-carboxamido)phenyl)acetamido)-2-hydroxy-3,4-dihydro-2H-benzo[e][1,2]oxaborinine-8-carboxylic acid], the MIC in the assay with N. gonorrhoeae WHO Q and in the assay with N. gonorrhoeae WHO Z was over 64 µg/mL each time. In addition, the “P. aeruginosa PBP3 Potency” value on P. aeruginosa PBP3 is recorded as “D (D represents a potency <10 μM)”.

With `CCN1CCN(C(=O)NC(C(=O)N[C@H]2Cc3cccc(C(=O)O)c3OB2O)c2cccc(NC(=O)c3cccnc3)c2)C(=O)C1=O` (stereo partly drawn) [Example 97, (3R)-3-(2-(4-ethyl-2,3-dioxopiperazine-1-carboxamido)-2-(3-(nicotinamido)phenyl)acetamido)-2-hydroxy-3,4-dihydro-2H-benzo[e][1,2]oxaborinine-8-carboxylic acid], the MIC in the assay with N. gonorrhoeae WHO Q and with N. gonorrhoeae WHO Z was over 64 µg/mL each time. Also, on P. aeruginosa PBP3, the “P. aeruginosa PBP3 Potency” value is recorded as “D (D represents a potency <10 μM)”.
